Patent US6235872A, “Proapoptotic peptides dependence polypeptides and methods of use” (The Burnham Institute, priority 1998, dated 2001)
“Also recorded” adds a separate entry of the source. Where no end group is shown, it is not given here.

What was measured:
isolated mitochondria = assay: Mitochondrial swelling followed spectrophotometrically at 520 nm (FIG. 3A); assay type: biochemical, rats; details: 0.5 mM, positive control
Method: Consistent with these observations, molecules such as Bcl-2 which inhibit apoptosis inhibit mitochondrial swelling. Briefly, mitochondria were prepared as previously described (Ellerby et al. J. Neurosci. 17:6165-6178 (1997)) except for the following modifications. The rats were sacrificed by CO2 inhalation without fasting and the mitochondria were isolated in MIB buffer (210 mM mannitol, 70 mM sucrose, 0.05% BSA, 1 mM EGTA, 5 mM Hepes-NaOH, pH 7.4). The mitochondrial pellet samples resuspended in MCB buffer (300 mM mannitol, 10 mM KH2 PO4, 0.1% BSA, pH 7.2) and applied to a discontinuous sucrose gradient (1.6 M sucrose, 10 mM KH2 PO4, pH 7.5; 1.2 M sucrose, 10 mM KH2 PO4, pH 7.5) were centrifuged at 48,500 g for 1 hour. […] The mitochondrial pellets were collected, resuspended in MSB, and stored on ice. After the addition of 50 μM of the peptide, mitochondrial swelling was followed spectrophotometrically at 520 nm (Petronilli et al. J. Biol. Chem. 269:16638-16642 (1994)) in CFS (220 mM mannitol, 68 mM sucrose, 2 mM NaCl, 5 mM KH2 PO4, 2 mM MgCl2, 5 mM succinate, 10 mM Hepes-NaOH, 2 mM ATP, 50 μg/ml creatine kinase, 10 mM phosphocreatine, 0.75 μg/ml rotenone, pH 7.4).

293T cells = assay: Apoptosis in 293T cells expressing FKBP/p75^NTR chimeras with or without FK1012; assay type: cell-based; details: 2 μM FK1012, 35 μM tamoxifen
Text: The FKBP12-tagging vector MF1E/MF3E, which included an amino-terminal myristylation site for membrane insertion (Spencer et al. Science 262:1019-1024 (1993)), contains one and three repeats of the FK-binding protein (FKBP) sequence. The FKBP12 vector served as a PCR template and was amplified using primers flanked by Nhe I (5' primer) or Nde I (3' primer) sites to produce DNA fragments consisting of one or three FK-binding domains (FKBP). The resulting PCR products contained either one or three FKBP sequence repeats and were subcloned into pcDNA3.1. A DNA fragment encoding an intracytoplasmic form of p75^NTR was removed from the pUC18-p75 plasmid by digestion with Nde I and Bam HI, and the DNA fragment was ligated to the carboxy-terminus of the FKBP sequences within the pcDNA3.1-FKBP construct. The resulting two expression vectors encoded FKBP/p75^NTR chimeras comprising one or three FKBP repeats at the amino-terminus fused to an intracytoplasmic form of p75^NTR at the carboxy-terminus.
The stimulation of cellular apoptosis by Fas and TNFR I is induced by ligand binding which triggers multimerization of Fas and TNFR I. The assembly of such a death-inducing signaling complex contributes to cellular apoptosis by activating caspase-8. The effect that dimerization or multimerization has on the ability of p75^NTR to stimulate apoptosis was analyzed. […]

PC3 = assay: Cell viability after peptide treatment, PC3; assay type: cell-based, human; details: 50 μM stated for tat-GG-SATLDALLAALRRI; 18 hours
Method: (§1) Briefly, NTera 2 human neuronal cells, R2 neural cells, CSM14.1 neural cells, LNCaP cells, SH-SY5Y human neuroblastoma cells and PC12 NRA5 cells were grown in DMEM/F12 (50/50) supplemented with 5% fetal bovine serum and seeded onto 96-well plates. […] The purified peptides were dissolved in tissue culture grade water and diluted to 50 μM and 100 μM in serum free medium and directly added to the cells in 96-well plates. The cells were incubated at 37° C. for 18 hours and 20 μM propidium iodide was added. Cell viability was determined using a fluorimeter as previously described (Kane et al. J. Neurosci. Res. 40:269-275 (1995)).

[1] = test system: NTera 2 human neuronal cells; assay: Cell viability after peptide treatment, NTera 2; assay type: cell-based; details: 50 μM stated for tat-GG-SATLDALLAALRRI; 18 hours
Method: as §1

LNCaP cells = assay: Cell viability after peptide treatment, LNCaP; assay type: cell-based; details: 50 μM stated for tat-GG-SATLDALLAALRRI; 18 hours
Method: as §1

PC12 NRA5 cells = details: 100 μM peptide; 18 hours
Method: Briefly, NTera 2 human neuronal cells, R2 neural cells, CSM14.1 neural cells, LNCaP cells, SH-SY5Y human neuroblastoma cells and PC12 NRA5 cells were grown in DMEM/F12 (50/50) supplemented with 5% fetal bovine serum and seeded onto 96-well plates. The peptides were synthesized and HPLC purified (Coast Scientific, San Diego, Calif.). The purified peptides were dissolved in tissue culture grade water and diluted to 50 μM and 100 μM in serum free medium and directly added to the cells in 96-well plates. The cells were incubated at 37° C. for 18 hours and 20 μM propidium iodide was added. Cell viability was determined using a fluorimeter as previously described (Kane et al. J. Neurosci. Res. 40:269-275 (1995)).

COS-7 = assay: Cell viability after peptide treatment, COS-7; assay type: cell-based; details: 50 μM stated for tat-GG-SATLDALLAALRRI; 18 hours
Method: as §1

[2] = test system: NTera 2, R2, CSM14.1, LNCaP, SH-SY5Y and PC12 NRA5 cells; assay: Induction of cell death by peptides added to cells (propidium iodide, Table 1); assay type: cell-based; details: peptide 50 μM and 100 μM in serum free medium, 18 hours
Method: A region of a dependence polypeptide that mediates apoptosis in cells was analyzed for its ability to stimulate apoptosis in cells. […] The effect of replacing leucine with lysine at position 7 (purple, […]; SEQ ID NO:41; tat-purple, tat-GG-[…]; SEQ ID NO:42), removing the carboxy-terminal "RRI" sequence (gray, SATLDALLAAL; SEQ ID NO:43; tat-gray, tat-GG--SATLDALLAAL; SEQ ID NO:44) or amino-terminal "SATLD" sequence (green; […]; SEQ ID NO:45) on the proapoptotic activity of a dependence peptide was examined. […] The 12 amino acid HIV tat protein fragment ([…]; SEQ ID NO:52; hereinafter termed "tat"), which facilitates cellular entry, also was included on the amino terminus of some of the peptides tested. […] For convenience, the hyphen in the above amino acid sequences is a nomenclature intended to set apart the proapoptotic dependence peptides and variants thereof or control peptides from other amino acid residues contained in the peptide.

[3] = test system: SH-SY5Y human neuroblastoma cells; assay: Cell death by tat-linked peptides and mutated variants in SH-SY5Y cells (FIG. 2); assay type: cell-based; details: relative to unmutated tat-GG-SATLDALLAALRRI
Method: To further analyze the effect of particular point mutations on apoptosis, additional studies employing dependence peptides and mutated variants linked to tat were performed in SH-SY5Y cells. The results shown in FIG. 2 are of studies in which quadruplicate samples were averaged, and the studies were repeated 2 to 10 times for each peptide. Each column represents the percentage cell death and the bars indicate the standard error. The amount of peptide added to the cells is indicated above each column.

Row | Compound | cell viability, PC3 (PC3) | cell viability, NTera 2 [1] | cell viability, LNCaP (LNCaP cells) | cell viability, COS-7 (COS-7) | also measured
1 | [Ca+2].[Cl-].[Cl-] [calcium chloride] |  |  |  |  | mitochondrial swelling (decreased absorbance at 520 nm) (isolated mitochondria): rapid swelling
2 | FK1012 |  |  |  |  | apoptosis of cells containing single copy or triple copy FKBP/p75^NTR protein chimera (293T cells): apoptosis was blocked
3 | GRKKRRQRRRPPGGDLSLARLATARLAI [tat-yellow, reference compound] | 97% |  |  |  | 
4 | GRKKRRQRRRPPGGKDRNLRRITRMVLV [tat-turquoise, reference compound] | 87.9% | 67.6% | 46.7% |  | cell viability, NRA 5 cells (PC12 NRA5 cells): 95.7%
5 | GRKKRRQRRRPPGGSATLDAKLAALRRI [tat-purple] | 92.8% | 69.3% |  | 97.8% | 
6 | GRKKRRQRRRPPGGSATLDALLAAL [tat-gray, tat-GG-SATLDALLAAL] | 90.5% | 76.7% | 59.1% | 97.1% | 
7 | GRKKRRQRRRPPGGSATLDALLAALRRI [tat-blue] | 4.2% | 1.3% | 0% | 1.5% | cell viability, NRA 5 cells (PC12 NRA5 cells): 0%
8 | INLKALAALAKKIL [MP] |  |  |  |  | Effect on apoptosis [2]: underwent apoptosis; also recorded: Apoptotic
9 | tat-GG-SATLDALLAALOOI (GRKKRRQRRRPPGGSATLDALLAALQQI) [arginines at positions 12 and 13 replaced with glutamine] |  |  |  |  | decrease of the ability to stimulate SH-SY5Y cell death [3]: 80%
